In US8192962B2, “Processes for detecting toxic substances” (Daikin Industries, Ltd., priority 2001, dated 2012):

System: Unknown protein yeast genes
Experiment: DNA chip mRNA expression in yeast, unknown protein yeast genes (Table 1)
Format: cell-based, Saccharomyces cerevisiae S288C
Method in brief: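 Untreated cultures served as reference for log-phase S288C yeast given a growth-inhibiting, non-lethal toxicant dose for 2 h at 25° C. in YPD. Gene expression was measured on a whole-genome DNA chip from Cy3/Cy5-labeled cDNA.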

[Cl][Hg][Cl] [(3), HgCl2]
The level of expressed mRNA in the presence of chemical substance/The level of expressed mRNA in the absence of chemical substance (yeast gene YKL195W, incubated two hours with chemical substance): 0.4
The level of expressed mRNA in the presence of chemical substance/The level of expressed mRNA in the absence of chemical substance (yeast gene YKR091W, incubated two hours with chemical substance): 0.9
The level of expressed mRNA in the presence of chemical substance/The level of expressed mRNA in the absence of chemical substance (yeast gene YLR054C, incubated two hours with chemical substance): 0.4
The level of expressed mRNA in the presence of chemical substance/The level of expressed mRNA in the absence of chemical substance (yeast gene YLR149C, incubated two hours with chemical substance): 3.4
The level of expressed mRNA in the presence of chemical substance/The level of expressed mRNA in the absence of chemical substance (yeast gene YLR152C, incubated two hours with chemical substance): 1.1
The level of expressed mRNA in the presence of chemical substance/The level of expressed mRNA in the absence of chemical substance (yeast gene YLR194C, incubated two hours with chemical substance): 1.3
The level of expressed mRNA in the presence of chemical substance/The level of expressed mRNA in the absence of chemical substance (yeast gene YLR324W, incubated two hours with chemical substance): 0.9
The level of expressed mRNA in the presence of chemical substance/The level of expressed mRNA in the absence of chemical substance (yeast gene YLR350W, incubated two hours with chemical substance): 3.2
The level of expressed mRNA in the presence of chemical substance/The level of expressed mRNA in the absence of chemical substance (yeast gene YLR387C, incubated two hours with chemical substance): 0.8
The level of expressed mRNA in the presence of chemical substance/The level of expressed mRNA in the absence of chemical substance (yeast gene YLR460C): 2.0
The level of expressed mRNA in the presence of chemical substance/The level of expressed mRNA in the absence of chemical substance (yeast gene YML117W, incubated two hours with chemical substance): 0.9
The level of expressed mRNA in the presence of chemical substance/The level of expressed mRNA in the absence of chemical substance (yeast gene YMR009W, incubated two hours with chemical substance): 0.5
The level of expressed mRNA in the presence of chemical substance/The level of expressed mRNA in the absence of chemical substance (yeast gene YMR067C, incubated two hours with chemical substance): 1.1
The level of expressed mRNA in the presence of chemical substance/The level of expressed mRNA in the absence of chemical substance (yeast gene YMR090W): 2.3
The level of expressed mRNA in the presence of chemical substance/The level of expressed mRNA in the absence of chemical substance (yeast gene YMR095C, incubated two hours with chemical substance): 1.6
The level of expressed mRNA in the presence of chemical substance/The level of expressed mRNA in the absence of chemical substance (yeast gene YMR097C, incubated two hours with chemical substance): 0.7
The level of expressed mRNA in the presence of chemical substance/The level of expressed mRNA in the absence of chemical substance (yeast gene YMR102C, incubated two hours with chemical substance): 1.1
The level of expressed mRNA in the presence of chemical substance/The level of expressed mRNA in the absence of chemical substance (yeast gene YMR107W, incubated two hours with chemical substance): 1.7
The level of expressed mRNA in the presence of chemical substance/The level of expressed mRNA in the absence of chemical substance (yeast gene YMR180C, incubated two hours with chemical substance): 1.0
The level of expressed mRNA in the presence of chemical substance/The level of expressed mRNA in the absence of chemical substance (yeast gene YMR184W, incubated two hours with chemical substance): 1.0
The level of expressed mRNA in the presence of chemical substance/The level of expressed mRNA in the absence of chemical substance (yeast gene YMR191W, incubated two hours with chemical substance): 1.9
The level of expressed mRNA in the presence of chemical substance/The level of expressed mRNA in the absence of chemical substance (yeast gene YMR295C, incubated two hours with chemical substance): 1.2
The level of expressed mRNA in the presence of chemical substance/The level of expressed mRNA in the absence of chemical substance (yeast gene YMR316W, incubated two hours with chemical substance): 1.1
The level of expressed mRNA in the presence of chemical substance/The level of expressed mRNA in the absence of chemical substance (yeast gene YNL044W, incubated two hours with chemical substance): 2.3
The level of expressed mRNA in the presence of chemical substance/The level of expressed mRNA in the absence of chemical substance (yeast gene YNL074C, incubated two hours with chemical substance): 1.8
The level of expressed mRNA in the presence of chemical substance/The level of expressed mRNA in the absence of chemical substance (yeast gene YNL092W, incubated two hours with chemical substance): 2.4
The level of expressed mRNA in the presence of chemical substance/The level of expressed mRNA in the absence of chemical substance (yeast gene YNL115C, incubated two hours with chemical substance): 1.6
The level of expressed mRNA in the presence of chemical substance/The level of expressed mRNA in the absence of chemical substance (yeast gene YNL156C, incubated two hours with chemical substance): 0.9
The level of expressed mRNA in the presence of chemical substance/The level of expressed mRNA in the absence of chemical substance (yeast gene YNL234W, incubated two hours with chemical substance): 0.6
The level of expressed mRNA in the presence of chemical substance/The level of expressed mRNA in the absence of chemical substance (yeast gene YNL281W, incubated two hours with chemical substance): 2.0
The level of expressed mRNA in the presence of chemical substance/The level of expressed mRNA in the absence of chemical substance (yeast gene YNL305C, incubated two hours with chemical substance): 2.7
The level of expressed mRNA in the presence of chemical substance/The level of expressed mRNA in the absence of chemical substance (yeast gene YNR068C, incubated two hours with chemical substance): 2.3
The level of expressed mRNA in the presence of chemical substance/The level of expressed mRNA in the absence of chemical substance (yeast gene YOL032W, incubated two hours with chemical substance): 2.0
The level of expressed mRNA in the presence of chemical substance/The level of expressed mRNA in the absence of chemical substance (yeast gene YOL036W, incubated two hours with chemical substance): 1.3
The level of expressed mRNA in the presence of chemical substance/The level of expressed mRNA in the absence of chemical substance (yeast gene YOL047C, incubated two hours with chemical substance): 1.1
The level of expressed mRNA in the presence of chemical substance/The level of expressed mRNA in the absence of chemical substance (yeast gene YOL071W, incubated two hours with chemical substance): 1.7
The level of expressed mRNA in the presence of chemical substance/The level of expressed mRNA in the absence of chemical substance (yeast gene YOL082W, incubated two hours with chemical substance): 1.6
The level of expressed mRNA in the presence of chemical substance/The level of expressed mRNA in the absence of chemical substance (yeast gene YOL083W, incubated two hours with chemical substance): 1.2
The level of expressed mRNA in the presence of chemical substance/The level of expressed mRNA in the absence of chemical substance (yeast gene YOL117W, incubated two hours with chemical substance): 0.5
The level of expressed mRNA in the presence of chemical substance/The level of expressed mRNA in the absence of chemical substance (yeast gene YOL131W, incubated two hours with chemical substance): 0.6
The level of expressed mRNA in the presence of chemical substance/The level of expressed mRNA in the absence of chemical substance (yeast gene YOL150C): 9.9
The level of expressed mRNA in the presence of chemical substance/The level of expressed mRNA in the absence of chemical substance (yeast gene YOL162W, incubated two hours with chemical substance): 1.7
The level of expressed mRNA in the presence of chemical substance/The level of expressed mRNA in the absence of chemical substance (yeast gene YOR019W, incubated two hours with chemical substance): 0.8
The level of expressed mRNA in the presence of chemical substance/The level of expressed mRNA in the absence of chemical substance (yeast gene YOR197W, incubated two hours with chemical substance): 1.1
The level of expressed mRNA in the presence of chemical substance/The level of expressed mRNA in the absence of chemical substance (yeast gene YPL087W, incubated two hours with chemical substance): 3.0
The level of expressed mRNA in the presence of chemical substance/The level of expressed mRNA in the absence of chemical substance (yeast gene YPL196W, incubated two hours with chemical substance): 1.3
The level of expressed mRNA in the presence of chemical substance/The level of expressed mRNA in the absence of chemical substance (yeast gene YPL206C, incubated two hours with chemical substance): 1.4
The level of expressed mRNA in the presence of chemical substance/The level of expressed mRNA in the absence of chemical substance (yeast gene YPL222W, incubated two hours with chemical substance): 0.8
The level of expressed mRNA in the presence of chemical substance/The level of expressed mRNA in the absence of chemical substance (yeast gene YPR023C, incubated two hours with chemical substance): 1.2
The level of expressed mRNA in the presence of chemical substance/The level of expressed mRNA in the absence of chemical substance (yeast gene YPR151C, incubated two hours with chemical substance): 1.5
